The text below walks through data of patent US7781591B2, “Substituted 3-cyanopyridines as protein kinase inhibitors” (Wyeth LLC, priority 2006, dated 2010).

The target of this assay is T1, human PKCθ full length enzyme (Homo sapiens, UniProt Q04759).
T1 construct: human PKCθ full length enzyme (Panvera Cat# P2996); purchased Panvera P2996
Nature of the assay: PKCθ IMAP assay (fluorescence polarization). The format is biochemical. Conditions: human PKCθ full length enzyme, IMAP; average value; read-out: IC50 PKCθ IMAP. A general note: Fluorescence polarisation rises when a labelled molecule tumbles more slowly, as on binding a larger partner.

The structures appear in SMILES notation.

T1 sequence (Q04759 whole entry): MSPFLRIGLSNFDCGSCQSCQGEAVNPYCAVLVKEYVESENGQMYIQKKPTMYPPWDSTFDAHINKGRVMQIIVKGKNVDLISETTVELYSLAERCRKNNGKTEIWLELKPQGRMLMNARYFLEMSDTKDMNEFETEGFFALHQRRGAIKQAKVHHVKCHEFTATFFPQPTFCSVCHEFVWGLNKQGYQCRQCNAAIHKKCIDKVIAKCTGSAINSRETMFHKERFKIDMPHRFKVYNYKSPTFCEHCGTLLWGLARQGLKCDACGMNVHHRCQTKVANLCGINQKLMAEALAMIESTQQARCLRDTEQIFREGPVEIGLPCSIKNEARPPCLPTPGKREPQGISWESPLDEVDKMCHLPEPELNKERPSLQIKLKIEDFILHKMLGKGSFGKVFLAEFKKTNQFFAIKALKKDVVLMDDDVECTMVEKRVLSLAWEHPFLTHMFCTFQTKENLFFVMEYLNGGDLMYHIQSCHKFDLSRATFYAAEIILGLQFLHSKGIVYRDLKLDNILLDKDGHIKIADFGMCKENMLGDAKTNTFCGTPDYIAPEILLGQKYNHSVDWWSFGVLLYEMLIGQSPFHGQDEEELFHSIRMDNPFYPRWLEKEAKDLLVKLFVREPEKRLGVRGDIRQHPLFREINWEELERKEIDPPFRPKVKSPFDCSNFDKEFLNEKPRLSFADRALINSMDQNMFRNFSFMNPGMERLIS

Broadly, the IC50 is the point on the concentration scale where inhibition reaches its midpoint. Consider `N#Cc1cncc(-c2cc3ccccc3o2)c1Nc1cccc2[nH]ccc12` [Compound 318, 5-(1-benzofuran-2-yl)-4-(1H-indol-4-ylamino)nicotinonitrile], for which the IC50 amounted to 10 nM. The value for `N#Cc1cncc(-c2cccc3c2oc2ccccc23)c1Nc1cccc2[nH]ccc12` [Compound 319, 5-dibenzo[b,d]furan-4-yl-4-(1H-indol-4-ylamino)nicotinonitrile] was 60 nM; that for `Cc1ccc(S(=O)(=O)n2cc(-c3cncc(C#N)c3Nc3cccc4[nH]ccc34)c3ccccc32)cc1` [Compound 320, 4-(1H-indol-4-ylamino)-5-{1-[(4-methylphenyl)sulfonyl]-1H-indol-3-yl}nicotinonitrile] was 30 nM; that for `N#Cc1cncc(-c2cc3ccccc3s2)c1Nc1cccc2[nH]ccc12` [Compound 322, 5-(1-benzothien-2-yl)-4-(1H-indol-4-ylamino)nicotinonitrile] was 20 nM.

Turning to `COc1ccc(-c2cncc(C#N)c2Nc2cccc3[nH]ccc23)cc1` [Compound 323, 4-(1H-indol-4-ylamino)-5-(4-methoxyphenyl)nicotinonitrile], the IC50 came out at 20 nM. Take `COc1ccccc1-c1cncc(C#N)c1Nc1cccc2[nH]ccc12` [Compound 324, 4-(1H-indol-4-ylamino)-5-(2-methoxyphenyl)nicotinonitrile]: the IC50 amounted to 20 nM.

Regarding `N#Cc1cncc(-c2cc3ccccc3[nH]2)c1Nc1cccc2[nH]ccc12` [Compound 325, 5-(1H-indol-2-yl)-4-(1H-indol-4-ylamino)nicotinonitrile], the IC50 stood at 60 nM. The same measure for `CN(C)S(=O)(=O)c1ccc(-c2cncc(C#N)c2Nc2cccc3[nH]ccc23)cc1` [Compound 326, 4-[5-cyano-4-(1H-indol-4-ylamino)pyridin-3-yl]-N,N-dimethylbenzenesulfonamide]: 190 nM; for `N#Cc1cncc(-c2cccc(C(=O)O)c2)c1Nc1cccc2[nH]ccc12` [Compound 327, 3-[5-cyano-4-(1H-indol-4-ylamino)pyridin-3-yl]benzoic acid]: 120 nM. The value for `N#Cc1cncc(-c2cccc(CN)c2)c1Nc1cccc2[nH]ccc12` [Compound 328, 5-[3-(aminomethyl)phenyl]-4-(1H-indol-4-ylamino)nicotinonitrile] was 20 nM; that for `COc1ccc(-c2cncc(C#N)c2Nc2cccc3c2CC(=O)N3)cc1OC` [Compound 329, 5-(3,4-dimethoxyphenyl)-4-[(2-oxo-2,3-dihydro-1H-indol-4-yl)amino]nicotinonitrile] was 8210 nM; that for `COCCNC(=O)c1ccc(-c2cncc(C#N)c2Nc2cccc3[nH]ccc23)cc1` [Compound 330, 4-[5-cyano-4-(1H-indol-4-ylamino)pyridin-3-yl]-N-(2-methoxyethyl)benzamide] was 130 nM.

Consider `N#Cc1cncc(-c2ccc(OCCCl)cc2)c1Nc1cccc2[nH]ccc12` [Compound 332, 5-[4-(2-chloroethoxy)phenyl]-4-(1H-indol-4-ylamino)nicotinonitrile], for which the IC50 is 8 nM.

Consider `N#Cc1cncc(-c2ccc(OCCN3CCOCC3)cc2)c1Nc1cccc2[nH]ccc12` [Compound 334, 4-(1H-indol-4-ylamino)-5-[4-(2-morpholin-4-ylethoxy)phenyl]nicotinonitrile], for which the IC50 turned out to be 30 nM.

`CN1CCN(CCOc2ccc(-c3cncc(C#N)c3Nc3cccc4[nH]ccc34)cc2)CC1` [Compound 335, 4-(1H-indol-4-ylamino)-5-{4-[2-(4-methylpiperazin-1-yl)ethoxy]phenyl}nicotinonitrile]: the IC50 was found to be 10 nM. The value for `COc1ccc(-c2cncc(C#N)c2Nc2c(C)ccc3[nH]ccc23)cc1OC` [Compound 336, 5-(3,4-dimethoxyphenyl)-4-[(5-methyl-1H-indol-4-yl)amino]nicotinonitrile] was 200 nM. The value for `COc1ccc(-c2cncc(C#N)c2Nc2cccc3[nH]ccc23)cc1OCCNCCCN1CCCC1=O` [Compound 338, 4-(1H-indol-4-ylamino)-5-[4-methoxy-3-(2-{[3-(2-oxopyrrolidin-1-yl)propyl]amino}ethoxy)phenyl]nicotinonitrile] was 8 nM; that for `COc1ccc(-c2cncc(C#N)c2Nc2cccc3[nH]ccc23)cc1OCCNCCc1c[nH]cn1` [Compound 339, 5-[3-(2-{[2-(1H-imidazol-4-yl)ethyl]amino}ethoxy)-4-methoxyphenyl]-4-(1H-indol-4-ylamino)nicotinonitrile] was 10 nM. The same measure for `COc1ccc(-c2cncc(C#N)c2Nc2ccc3[nH]ccc3c2C)cc1OCCNCCCc1ccccc1` [Compound 342, 5-(4-methoxy-3-{2-[(3-phenylpropyl)amino]ethoxy}phenyl)-4-[(4-methyl-1H-indol-5-yl)amino]nicotinonitrile]: 1 nM. `COc1ccc(-c2cncc(C#N)c2Nc2ccc3[nH]ccc3c2C)cc1OCCN1CCN(C)CC1` [Compound 343, 5-{4-methoxy-3-[2-(4-methylpiperazin-1-yl)ethoxy]phenyl}-4-[(4-methyl-1H-indol-5-yl)amino]nicotinonitrile]: the IC50 is 10 nM. The same measure for `COc1cc(-c2cncc(C#N)c2Nc2ccc3[nH]ccc3c2C)ccc1OCCNCCCc1ccccc1` [Compound 344, 5-(3-methoxy-4-{2-[(3-phenylpropyl)amino]ethoxy}phenyl)-4-[(4-methyl-1H-indol-5-yl)amino]nicotinonitrile]: 8 nM; for `COc1cc(-c2cncc(C#N)c2Nc2ccc3[nH]ccc3c2C)ccc1OCCN(C)C` [Compound 345, 5-{4-[2-(dimethylamino)ethoxy]-3-methoxyphenyl}-4-[(4-methyl-1H-indol-5-yl)amino]nicotinonitrile]: 7 nM.

For the molecule `N#Cc1cncc(-c2cccc(Br)c2)c1Nc1cccc2c1CC(=O)N2` [Compound 346, 5-(3-bromophenyl)-4-[(2-oxo-2,3-dihydro-1H-indol-4-yl)amino]nicotinonitrile], the IC50 was 540 nM. The value for `Cc1c(Nc2c(C#N)cncc2-c2ccc(OCCCl)cc2)ccc2[nH]ccc12` [Compound 348, 5-[4-(2-chloroethoxy)phenyl]-4-[(4-methyl-1H-indol-5-yl)amino]nicotinonitrile] was 4 nM; that for `COc1ccc(-c2cncc(C#N)c2Nc2cccc3[nH]c(C)cc23)cc1OC` [Compound 349, 5-(3,4-dimethoxyphenyl)-4-[(2-methyl-1H-indol-4-yl)amino]nicotinonitrile] was 130 nM. The same measure for `Cc1c(Nc2c(C#N)cncc2-c2ccc(OCCN3CCN(C)CC3)cc2)ccc2[nH]ccc12` [Compound 350, 4-[(4-methyl-1H-indol-5-yl)amino]-5-{4-[2-(4-methylpiperazin-1-yl)ethoxy]phenyl}nicotinonitrile]: 8 nM; for `Cc1c(Nc2c(C#N)cncc2-c2ccc(OCCN3CCOCC3)cc2)ccc2[nH]ccc12` [Compound 351, 4-[(4-methyl-1H-indol-5-yl)amino]-5-[4-(2-morpholin-4-ylethoxy)phenyl]nicotinonitrile]: 20 nM; for `COc1ccc(-c2cncc(C#N)c2Nc2cccc3[nH]ccc23)cc1OCCNCCc1ccccc1` [Compound 353, 4-(1H-indol-4-ylamino)-5-(4-methoxy-3-{2-[(2-phenylethyl)amino]ethoxy}phenyl)nicotinonitrile]: 1 nM. The value for `COc1ccc(-c2cncc(C#N)c2Nc2cccc3[nH]ccc23)cc1OCCNCCc1cccnc1` [Compound 354, 4-(1H-indol-4-ylamino)-5-(4-methoxy-3-{2-[(2-pyridin-3-ylethyl)amino]ethoxy}phenyl)nicotinonitrile] was 4 nM. For `Cc1c(Nc2c(C#N)cncc2-c2ccc(OCCNCCCc3ccccc3)cc2)ccc2[nH]ccc12` [Compound 355, 4-[(4-methyl-1H-indol-5-yl)amino]-5-(4-{2-[(3-phenylpropyl)amino]ethoxy}phenyl)nicotinonitrile], the IC50 was 3 nM. The value for `CN(C)CCCOc1ccc(-c2cncc(C#N)c2Nc2cccc3[nH]ccc23)cn1` [Compound 356, 6′-[3-(dimethylamino)propoxy]-4-(1H-indol-4-ylamino)-3,3′-bipyridine-5-carbonitrile] was 40 nM; that for `Cc1c(Nc2c(C#N)cncc2-c2ccc(OCCCN(C)C)nc2)ccc2[nH]ccc12` [Compound 357, 6′-[3-(dimethylamino)propoxy]-4-[(4-methyl-1H-indol-5-yl)amino]-3,3′-bipyridine-5-carbonitrile] was 30 nM; that for `N#Cc1cncc(-c2cccc(O)c2)c1Nc1cccc2[nH]ccc12` [Compound 358, 5-(3-hydroxyphenyl)-4-(1H-indol-4-ylamino)nicotinonitrile] was 10 nM. The same measure for `N#Cc1cncc(-c2cc3cc(CN4CCNCC4)ccc3s2)c1Nc1cccc2[nH]ccc12` [Compound 359, 4-(1H-indol-4-ylamino)-5-[5-(piperazin-1-ylmethyl)-1-benzothien-2-yl]nicotinonitrile]: 20 nM; for `N#Cc1cncc(-c2cc3cc(CNC(=O)CCN)ccc3s2)c1Nc1cccc2[nH]ccc12` [Compound 360, N-({2-[5-cyano-4-(1H-indol-4-ylamino)pyridin-3-yl]-1-benzothien-5-yl}methyl)-b-alaninamide]: 2 nM; for `N#Cc1cncc(-c2ccc(NCCN3CCOCC3)nc2)c1Nc1cccc2[nH]ccc12` [Compound 361, 4-(1H-indol-4-ylamino)-6′-[(2-morpholin-4-ylethyl)amino]-3,3′-bipyridine-5-carbonitrile]: 40 nM. The value for `Cc1c(Nc2c(C#N)cncc2-c2ccc(NCCN3CCOCC3)nc2)ccc2[nH]ccc12` [Compound 362, 4-[(4-methyl-1H-indol-5-yl)amino]-6′-[(2-morpholin-4-ylethyl)amino]-3,3′bipyridine-5-carbonitrile] was 50 nM.

Take `Cc1c(Nc2c(C#N)cncc2-c2ccc(OCCN(C)C)cc2Cl)ccc2[nH]ccc12` [Compound 363, 5-{2-chloro-4-[2-(dimethylamino)ethoxy]phenyl}-4-[(4-methyl-1H-indol-5-yl)amino]nicotinonitrile]: the IC50 was 20 nM.
